# System: 873145-292-R-J1-PDC complex spheroid viability
# Assay: Anticancer human tumor 873145-292-R-J1-PDC patient-derived renal clear cell carcinoma cell line growth inhibition [POLQ]
# Details: for IC50: curve of first compound; for viability, T/C: stronger effect = lower value
# Procedure, shortened: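 Complex spheroid viability model combining PDC tumour cells with endothelial (HUVEC) and MSC stromal cells. Novobiocin, ART-558 or RP6685 were tested singly and in combination with standard and investigational anticancer drugs. Each was titrated in half-log steps from near clinical Cmax, or from 10 microM where Cmax was unknown.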
# [1] = second compound 0.0316 µM, first compound 0.0316 µM
# [2] = second compound 0.0316 µM, first compound 0.1 µM
# [3] = second compound 0.0316 µM, first compound 0.316 µM
# [4] = second compound 0.0316 µM, first compound 1 µM
# [5] = second compound 0.1 µM, first compound 0.0316 µM
# [6] = second compound 0.1 µM, first compound 0.1 µM
# [7] = second compound 0.1 µM, first compound 0.316 µM
# [8] = second compound 0.1 µM, first compound 1 µM
# [9] = second compound 0.316 µM, first compound 0.0316 µM
# [10] = second compound 0.316 µM, first compound 0.1 µM
# [11] = second compound 0.316 µM, first compound 0.316 µM
# [12] = second compound 0.316 µM, first compound 1 µM
# [13] = second compound 1 µM, first compound 0.0316 µM
# [14] = second compound 1 µM, first compound 0.1 µM
# [15] = second compound 1 µM, first compound 0.316 µM
# [16] = second compound 1 µM, first compound 1 µM
# [17] = second compound 3.16 µM, first compound 0.0316 µM
# [18] = second compound 3.16 µM, first compound 0.1 µM
# [19] = second compound 3.16 µM, first compound 0.316 µM
# [20] = second compound 3.16 µM, first compound 1 µM
# [21] = second compound 10 µM, first compound 0.0316 µM
# [22] = second compound 10 µM, first compound 0.1 µM
# [23] = second compound 10 µM, first compound 0.316 µM
# [24] = second compound 10 µM, first compound 1 µM
# [25] = second compound 0.0316 µM, first compound 0.00316 µM
# [26] = second compound 0.0316 µM, first compound 0.01 µM
# [27] = second compound 0.1 µM, first compound 0.00316 µM
# [28] = second compound 0.1 µM, first compound 0.01 µM
# [29] = second compound 0.316 µM, first compound 0.00316 µM
# [30] = second compound 0.316 µM, first compound 0.01 µM
# [31] = second compound 1 µM, first compound 0.00316 µM
# [32] = second compound 1 µM, first compound 0.01 µM
# [33] = second compound 3.16 µM, first compound 0.00316 µM
# [34] = second compound 3.16 µM, first compound 0.01 µM
# [35] = second compound 10 µM, first compound 0.00316 µM
# [36] = second compound 10 µM, first compound 0.01 µM
# 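Further: spheroids exposed to compounds for 7 days before viability readout.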
# 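Wherever viability, T/C is given: luminescence signal used as surrogate for viable cell content; 100% = DMSO vehicle control viability.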
structure (smiles),measurement,setting,value
COc1cc(C2c3cc4c(cc3C(OC3OC5COC(C)OC5C(O)C3O)C3COC(=O)C23)OCO4)cc(OC)c1O (stereo unspecified) + Cc1cccc(N(C)C(=O)C2C(O)CCN2c2nc(C)cc(C(F)(F)F)c2C#N)c1,IC50,second compound 0.0316 µM,9590 nM
same,IC50,second compound 0.1 µM,> 10000 nM
same,IC50,second compound 0.316 µM,8710 nM
same,IC50,second compound 1 µM,8980 nM
same,IC50,second compound 3.16 µM,9500 nM
same,IC50,second compound 10 µM,> 10000 nM
same,"viability, T/C",[1],97.9%
same,"viability, T/C",[2],98.3%
same,"viability, T/C",[3],86.8%
same,"viability, T/C",[4],81.4%
same,"viability, T/C","second compound 0.0316 µM, first compound 3.16 µM",68.2%
same,"viability, T/C","second compound 0.0316 µM, first compound 10 µM",48.9%
same,"viability, T/C",[5],91.2%
same,"viability, T/C",[6],94.5%
same,"viability, T/C",[7],87.4%
same,"viability, T/C",[8],90.1%
same,"viability, T/C","second compound 0.1 µM, first compound 3.16 µM",68.9%
same,"viability, T/C","second compound 0.1 µM, first compound 10 µM",53.5%
same,"viability, T/C",[9],99.6%
same,"viability, T/C",[10],97.1%
same,"viability, T/C",[11],78.5%
same,"viability, T/C",[12],86.8%
same,"viability, T/C","second compound 0.316 µM, first compound 3.16 µM",68.3%
same,"viability, T/C","second compound 0.316 µM, first compound 10 µM",46.2%
same,"viability, T/C",[13],94.6%
same,"viability, T/C",[14],96.7%
same,"viability, T/C",[15],95%
same,"viability, T/C",[16],87%
same,"viability, T/C","second compound 1 µM, first compound 3.16 µM",68.8%
same,"viability, T/C","second compound 1 µM, first compound 10 µM",48%
same,"viability, T/C",[17],98.9%
same,"viability, T/C",[18],82.5%
same,"viability, T/C",[19],91.1%
same,"viability, T/C",[20],85.8%
same,"viability, T/C","second compound 3.16 µM, first compound 3.16 µM",74%
same,"viability, T/C","second compound 3.16 µM, first compound 10 µM",48.4%
same,"viability, T/C",[21],96.7%
same,"viability, T/C",[22],85.3%
same,"viability, T/C",[23],81.6%
same,"viability, T/C",[24],72.3%
same,"viability, T/C","second compound 10 µM, first compound 3.16 µM",60%
same,"viability, T/C","second compound 10 µM, first compound 10 µM",57.1%
Cn1ncnc1[C@H]1c2n[nH]c(=O)c3cc(F)cc(c23)N[C@@H]1c1ccc(F)cc1 + COC1C(OC(N)=O)C(O)C(Oc2ccc3c(O)c(NC(=O)c4ccc(O)c(CC=C(C)C)c4)c(=O)oc3c2C)OC1(C)C,IC50,second compound 0.0316 µM,> 100 nM
same,IC50,second compound 0.1 µM,> 100 nM
same,IC50,second compound 0.316 µM,> 100 nM
same,IC50,second compound 1 µM,> 100 nM
same,IC50,second compound 3.16 µM,> 100 nM
same,IC50,second compound 10 µM,> 100 nM
same,"viability, T/C","second compound 0.0316 µM, first compound 0.000316 µM",98.5%
same,"viability, T/C","second compound 0.0316 µM, first compound 0.001 µM",102%
same,"viability, T/C",[25],87.2%
same,"viability, T/C",[26],94.8%
same,"viability, T/C",[1],102%
same,"viability, T/C",[2],95.9%
same,"viability, T/C","second compound 0.1 µM, first compound 0.000316 µM",101%
same,"viability, T/C","second compound 0.1 µM, first compound 0.001 µM",102%
same,"viability, T/C",[27],96.2%
same,"viability, T/C",[28],85.9%
same,"viability, T/C",[5],99.5%
same,"viability, T/C",[6],84.2%
same,"viability, T/C","second compound 0.316 µM, first compound 0.000316 µM",102%
same,"viability, T/C","second compound 0.316 µM, first compound 0.001 µM",98.7%
same,"viability, T/C",[29],102%
same,"viability, T/C",[30],93.1%
same,"viability, T/C",[9],94.8%
same,"viability, T/C",[10],91.6%
same,"viability, T/C","second compound 1 µM, first compound 0.000316 µM",103%
same,"viability, T/C","second compound 1 µM, first compound 0.001 µM",99.3%
same,"viability, T/C",[31],95.6%
same,"viability, T/C",[32],103%
same,"viability, T/C",[13],94.5%
same,"viability, T/C",[14],89.8%
same,"viability, T/C","second compound 3.16 µM, first compound 0.000316 µM",101%
same,"viability, T/C","second compound 3.16 µM, first compound 0.001 µM",97.7%
same,"viability, T/C",[33],108%
same,"viability, T/C",[34],89.3%
same,"viability, T/C",[17],98.8%
same,"viability, T/C",[18],99.3%
same,"viability, T/C","second compound 10 µM, first compound 0.000316 µM",98.9%
same,"viability, T/C","second compound 10 µM, first compound 0.001 µM",95%
same,"viability, T/C",[35],104%
same,"viability, T/C",[36],90.9%
same,"viability, T/C",[21],95.2%
same,"viability, T/C",[22],94.9%
CCc1c2c(nc3ccc(O)cc13)-c1cc3c(c(=O)n1C2)COC(=O)[C@]3(O)CC + COC1C(OC(N)=O)C(O)C(Oc2ccc3c(O)c(NC(=O)c4ccc(O)c(CC=C(C)C)c4)c(=O)oc3c2C)OC1(C)C,IC50,second compound 0.0316 µM,78.8 nM
same,IC50,second compound 0.1 µM,63.7 nM
same,IC50,second compound 0.316 µM,67.8 nM
same,IC50,second compound 1 µM,50.4 nM
same,IC50,second compound 3.16 µM,59.8 nM
same,IC50,second compound 10 µM,82.9 nM
same,"viability, T/C",[25],108%
same,"viability, T/C",[26],86.7%
same,"viability, T/C",[1],58.6%
same,"viability, T/C",[2],47.1%
same,"viability, T/C",[3],40.6%
same,"viability, T/C",[4],28.6%
same,"viability, T/C",[27],96.4%
same,"viability, T/C",[28],92.1%
same,"viability, T/C",[5],53.7%
same,"viability, T/C",[6],48.4%
same,"viability, T/C",[7],36.7%
same,"viability, T/C",[8],26.9%
same,"viability, T/C",[29],103%
same,"viability, T/C",[30],83%
same,"viability, T/C",[9],59.2%
same,"viability, T/C",[10],43.2%
same,"viability, T/C",[11],39.7%
same,"viability, T/C",[12],28.6%
same,"viability, T/C",[31],104%
same,"viability, T/C",[32],87.2%
same,"viability, T/C",[13],58.1%
same,"viability, T/C",[14],36.6%
same,"viability, T/C",[15],39.4%
same,"viability, T/C",[16],28.7%
same,"viability, T/C",[33],99.8%
same,"viability, T/C",[34],77.1%
same,"viability, T/C",[17],57%
same,"viability, T/C",[18],42.2%
same,"viability, T/C",[19],37.6%
same,"viability, T/C",[20],27.2%
same,"viability, T/C",[35],99.7%
same,"viability, T/C",[36],75.4%
same,"viability, T/C",[21],53.4%
same,"viability, T/C",[22],55.4%
same,"viability, T/C",[23],39.2%
same,"viability, T/C",[24],26.2%

# — PubChem BioAssay AID1963834 (Molecular Pharmacology Branch, DTP, NCI, 2024)
